Experimental data: US20180296487A1, “SUSTAINED RELEASE INJECTABLE NEUROSTEROID FORMULATIONS” (MARINUS PHARMACEUTICALS, INC., priority 2017, published 2018)
Read-outs that look alike come from different tables or passages of the source.

How the values were obtained:
[1] = cited from earlier work

Row | SMILES | half-life ([1]; human plasma) | half-life ([1]; human plasma following oral administration) | Tmax ([1]; therapeutic blood levels are reached quickly) | solubility in water (Solubility in water)
1 | CC(=O)[C@H]1CC[C@H]2[C@@H]3CC[C@H]4C[C@H](O)CC[C@]4(C)[C@H]3CC[C@]12C [Allopregnanolone, 3α,5α-tetrahydroprogesterone] | about 45 minutes |  |  | 
2 | CC(=O)[C@H]1CC[C@H]2[C@@H]3CC[C@H]4C[C@](C)(O)CC[C@]4(C)[C@H]3CC[C@]12C [Ganaxolone, 3α-hydroxy, 3β-methyl-5α-pregnan-20-one] |  | approximately 20 hours | short | < 1 µg/mL
